Laboratory results taken from publication PMC9869559, “The Weimberg pathway: an alternative for Myceliophthora thermophila to utilize D-xylose” (Biotechnology for Biofuels and Bioproducts, 2023).

Tests used:
[1] = target: T1, Trxyd1 (D-xylose dehydrogenase, XDH) (Trichoderma reesei, UniProt G0R8G7); assay: NAD+ or NADP+ reduction at […] nm, crude mycelial extract of overexpressing strain; format: biochemical; conditions: 100 mM D-xylose, 2 mM NAD+ or NADP+, 2 mM MgCl2, 100 mM Tris-HCl pH 8.0, 30 °C
T1 construct: gene TRIREDRAFT_53673; full-length gene from cDNA, inserted at pck locus of M. thermophila JG207 delta-Mtxyl1 (DF1309); crude mycelial extract
T1 sequence (G0R8G7 1-391): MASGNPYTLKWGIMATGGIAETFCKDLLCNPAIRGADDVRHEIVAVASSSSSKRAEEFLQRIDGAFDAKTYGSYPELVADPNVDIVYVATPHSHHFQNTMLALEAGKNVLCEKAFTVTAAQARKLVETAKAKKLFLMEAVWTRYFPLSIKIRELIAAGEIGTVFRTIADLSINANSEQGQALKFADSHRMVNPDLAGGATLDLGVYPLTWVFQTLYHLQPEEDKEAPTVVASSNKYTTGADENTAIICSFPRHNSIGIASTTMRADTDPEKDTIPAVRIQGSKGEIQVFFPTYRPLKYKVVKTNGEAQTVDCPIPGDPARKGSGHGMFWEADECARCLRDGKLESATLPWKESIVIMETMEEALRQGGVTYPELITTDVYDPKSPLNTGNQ

[2] = target: T2, Mtxyd1 (native D-xylose dehydrogenase, XDH) (Thermothelomyces thermophilus, UniProt G2QN15); assay: NADP+ reduction at […] nm, crude mycelial extract of overexpressing strain; format: biochemical; conditions: 100 mM D-xylose, 2 mM NADP+, 2 mM MgCl2, 100 mM Tris-HCl pH 8.0, 30 °C
T2 construct: gene MYCTH_112471; full-length native gene from cDNA, inserted at pck locus of M. thermophila JG207 delta-Mtxyl1 (DF1310); crude mycelial extract
T2 sequence (G2QN15 1-395): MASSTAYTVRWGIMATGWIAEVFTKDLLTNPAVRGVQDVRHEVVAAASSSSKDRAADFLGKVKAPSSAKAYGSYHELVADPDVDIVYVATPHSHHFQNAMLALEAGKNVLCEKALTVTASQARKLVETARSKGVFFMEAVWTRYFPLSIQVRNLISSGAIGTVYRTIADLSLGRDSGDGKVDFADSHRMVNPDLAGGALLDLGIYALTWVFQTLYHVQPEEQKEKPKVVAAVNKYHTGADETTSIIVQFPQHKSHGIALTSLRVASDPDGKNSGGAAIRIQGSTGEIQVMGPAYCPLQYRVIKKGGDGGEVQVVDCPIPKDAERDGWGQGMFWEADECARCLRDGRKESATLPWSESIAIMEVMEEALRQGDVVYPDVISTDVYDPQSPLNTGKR

Row | Compound | specific activity [1] | specific activity [2]
1 | OC1OC[C@@H](O)[C@H](O)[C@H]1O (stereo partly drawn) [D-xylose] | The enzymatic activity of XDH in strains DF1309 and DF1310 was verified | XDH encoded by endogenous Mtxyd1 owned the highest activity
2 | NC(=O)c1ccc[n+]([C@@H]2O[C@H](COP(=O)(O)OP(=O)(O)OC[C@H]3O[C@@H](n4cnc5c(N)ncnc54)[C@H](OP(=O)(O)O)[C@@H]3O)[C@@H](O)[C@H]2O)c1 [NADP^+] | – | When using NADP^+ as a cofactor, XDH encoded by endogenous Mtxyd1 owned the highest activity
